Structures are written as SMILES. Converted amounts (≈) assume the structure as drawn. Read-outs that look alike come from different tables or passages of the source.

Results on 2 molecules are retold here after PMC7369900 (International Journal of Molecular Sciences, 2020).

The test system of data set [1] is C. krusei DSM 6128. The data set is described as follows: microbe, parasite or virus in culture. As to conditions: Pichia kudriavzevii, DSM6128.
Data set [2] concerns C. albicans SC 5314. Kind of data set: microbe, parasite or virus in culture. As to conditions: Candida albicans, SC5314.
The test system of data set [3] is C. albicans Δopt1Δopt5Δptr2Δptr22. Kind of data set: microbe, parasite or virus in culture. As to conditions: Candida albicans.
Data set [4] concerns C. glabrata DSM 11226. The data set is described as follows: microbe, parasite or virus in culture. As to conditions: Nakaseomyces glabratus, DSM11226.
The subject of data set [5] is C. albicans Gu4. Kind of data set: microbe, parasite or virus in culture. As to conditions: Candida albicans.
Data set [6] deals with C. albicans Gu5. The data set is described as follows: microbe, parasite or virus in culture. Conditions: Candida albicans.
The test system of data set [7] is P. aeruginosa ATCC 27853. The data set is described as follows: microbe, parasite or virus in culture. The format is cell-based, Pseudomonas aeruginosa. The procedure, abridged:
(§1)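 MIC and MBC were determined by serial two-fold broth microdilution in Mueller Hinton broth per CLSI M07-A10, in triplicate. MIC90 and MIC50 are the concentrations giving 90% or 50% growth reduction versus drug-free control.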

Data set [8] addresses T1, yeast DNA topoisomerase II (Saccharomyces cerevisiae, UniProt P06786).
T1 construct: purchased Inspiralis (Norwich, UK)
Kind of data set: biochemical. The format is biochemical. As to conditions: pBR322 relaxation, 30 °C, 30 min.

Data set [9] has as its system Staphylococcus aureus ATCC 25,923. The arrangement: method as in PMID 25891396. Conditions: cited from earlier work.
Data set [10] deals with C. albicans Δopt1Δopt5Δptr2Δptr22.
The subject of data set [11] is C. krusei DSM 6128.
Data set [12] has as its system C. glabrata DSM 11226.
Data set [13] has as its system bacteria. Kind of data set: Influence of salts: antibacterial activity in MHB2 compared to MHB. Conditions: MHB2: Ca(II) 20–25 mg/L, Mg(II) 10–12.5 mg/L. The format is cell-based. As to the method:
Additionally, for selected compounds, the aspect of the influence of salts present in the medium on antimicrobial activity was evaluated. […] In the salt-enriched medium, the MIC values determined for TP10-NH2 were up to 40-fold higher than those found in MHB. The phenomenon of reduction of the growth inhibitory activity of antimicrobial peptides at a high salt concentration was previously evidenced by other researchers. It may cause severe limitations for AMPs’ usage as therapeutic agents because of the risk of potential inactivation by salts present in the human body.

In data set [14] the test system is S. epidermidis ATCC 12228. Kind of data set: microbe, parasite or virus in culture. The format is cell-based, Staphylococcus epidermidis. As to conditions: S. epidermidis ATCC 12228, MHB. In short, it runs like this: as §1
For data set [15], the system named is E. coli ATCC 25,922. On the set-up: method as in PMID 25891396. Conditions: cited from earlier work.
Data set [16] relates to E. coli ATCC 25922. The data set is described as follows: microbe, parasite or virus in culture. It is filed as cell-based, Escherichia coli. As to conditions: E. coli ATCC 25922, MHB. The procedure, abridged:
as §1

Data set [17] concerns HEK 293. The data set is described as follows: cells. The format is cell-based, human. As to conditions: HEK 293, 72 h, MTT. The procedure, abridged: (§2)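 MTT assay after 72 h compound exposure at 37 °C; LLC-PK1 in Medium 199 + 7.5% FBS, Hep G2 in MEM Eagle + 10% FBS, HEK 293 in DMEM + 10% FBS (10% CO2 for HEK 293, otherwise 5%). MTT 3 h, formazan in DMSO, A540; cytotoxicity relative to drug-free control, triplicates.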

Data set [18] concerns Hep G2. Kind of data set: cells. It is filed as cell-based, human. Conditions: Hep G2, 72 h, MTT. In short, it runs like this: as §2
The test system of data set [19] is C. albicans Gu4.
The subject of data set [20] is S. aureus ATCC 29213. The data set is described as follows: microbe, parasite or virus in culture. The format is cell-based, Staphylococcus aureus. Conditions: S. aureus ATCC 29213, MHB. In short, it runs like this: as §1
The test system of data set [21] is LLC-PK1. Kind of data set: cells. The format is cell-based, pig. Conditions: LLC-PK1, 72 h, MTT. In short, it runs like this:
as §2

For data set [22], the system named is HL-60. The data set is described as follows: ROS generation (CM-H2DCFDA, flow cytometry). The format is cell-based, human. Conditions: positive cells in 24 h, class. A general note: In flow cytometry, cells or beads pass a laser one at a time.
Data set [23] deals with HEK 293. The data set is described as follows: ROS generation (CM-H2DCFDA, flow cytometry). It is filed as cell-based, human. As to conditions: positive cells in 24 h, class. The procedure, abridged: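 Cells were seeded 24 h in DMEM, then incubated 0.5, 2.5, 5.5 or 24 h at 37 °C, with 250 µM H2O2 as positive control. CM-H2DCFDA was added for a further 0.5 h, with 7-AAD (0.8 µg/mL) co-staining before flow cytometry. The read-out was the fraction of ROS-positive cells, in triplicate.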

In data set [24] the test system is C. albicans SC 5314.
Data set [25] concerns S. aureus ATCC 25,923 cells. The data set is described as follows: Stability inside bacterial cells (LC-MS of cell lysate).
Data set [26] relates to human red blood cells. The data set is described as follows: Hemolysis assay. Conditions: 1 h, 37 °C.
The test system of data set [27] is yeasts of the Candida genus.

T1 sequence (P06786 whole entry): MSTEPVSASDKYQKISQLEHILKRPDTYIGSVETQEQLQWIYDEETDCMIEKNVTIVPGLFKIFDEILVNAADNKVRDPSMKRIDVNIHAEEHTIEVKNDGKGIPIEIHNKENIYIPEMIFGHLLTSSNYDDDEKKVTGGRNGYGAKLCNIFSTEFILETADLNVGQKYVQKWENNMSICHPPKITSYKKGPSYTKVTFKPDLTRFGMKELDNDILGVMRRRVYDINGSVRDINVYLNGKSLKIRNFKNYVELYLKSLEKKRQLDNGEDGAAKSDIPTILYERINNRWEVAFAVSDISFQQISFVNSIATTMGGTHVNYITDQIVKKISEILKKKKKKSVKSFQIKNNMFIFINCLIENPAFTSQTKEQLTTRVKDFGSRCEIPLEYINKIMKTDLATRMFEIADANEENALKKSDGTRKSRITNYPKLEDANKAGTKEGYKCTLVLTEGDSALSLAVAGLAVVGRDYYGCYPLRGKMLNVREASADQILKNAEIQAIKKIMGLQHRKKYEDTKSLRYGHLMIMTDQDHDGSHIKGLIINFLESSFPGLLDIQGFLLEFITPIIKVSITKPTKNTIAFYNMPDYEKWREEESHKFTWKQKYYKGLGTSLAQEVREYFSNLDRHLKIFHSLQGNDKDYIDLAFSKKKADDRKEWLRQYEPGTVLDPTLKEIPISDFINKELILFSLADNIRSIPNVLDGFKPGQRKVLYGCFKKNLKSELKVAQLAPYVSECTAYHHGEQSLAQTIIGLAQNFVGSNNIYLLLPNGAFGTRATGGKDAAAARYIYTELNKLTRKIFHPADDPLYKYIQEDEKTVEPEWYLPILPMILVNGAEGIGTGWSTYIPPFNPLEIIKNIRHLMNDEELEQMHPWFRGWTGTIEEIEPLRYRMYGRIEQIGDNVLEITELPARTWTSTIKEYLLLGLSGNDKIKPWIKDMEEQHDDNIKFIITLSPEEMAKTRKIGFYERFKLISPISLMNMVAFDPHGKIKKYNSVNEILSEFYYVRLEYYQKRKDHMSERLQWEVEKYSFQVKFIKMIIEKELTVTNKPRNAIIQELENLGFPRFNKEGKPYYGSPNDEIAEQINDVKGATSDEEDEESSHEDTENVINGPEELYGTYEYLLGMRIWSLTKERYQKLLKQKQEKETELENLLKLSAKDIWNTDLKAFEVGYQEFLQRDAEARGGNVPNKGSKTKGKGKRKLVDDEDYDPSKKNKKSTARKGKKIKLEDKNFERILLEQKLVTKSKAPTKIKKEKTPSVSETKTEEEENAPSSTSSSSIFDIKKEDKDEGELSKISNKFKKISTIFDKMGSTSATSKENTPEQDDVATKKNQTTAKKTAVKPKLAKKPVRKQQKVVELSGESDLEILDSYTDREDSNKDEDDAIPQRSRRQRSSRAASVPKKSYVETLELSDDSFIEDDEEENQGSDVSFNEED

Turning to `OC(Cn1cncn1)(Cn1cncn1)c1ccc(F)cc1F` [FLU, Fluconazole], the MIC50 is 50 µM (≈ 15.3 µg/mL) in [1]; 50 µM (≈ 15.3 µg/mL) in data set [2]; 50 µM (≈ 15.3 µg/mL) in data set [3]; 100 µM (≈ 30.6 µg/mL) in [4]; 50 µM (≈ 15.3 µg/mL) in data set [5]; above 200 µM in [6]. In addition, the MIC90 in [2] and in data set [3] was 100 µM (≈ 30.6 µg/mL) each time.

Broadly, the IC50 is the midpoint of a concentration-inhibition curve. High values mean a need for much substance, low ones inhibition by little substance. Consider `CC[C@H](C)[C@H](NC(=O)[C@H](CCCCN)NC(=O)[C@H](CCCCN)NC(=O)[C@H](C)NC(=O)[C@H](CC(C)C)NC(=O)[C@H](C)NC(=O)[C@H](C)NC(=O)[C@H](CC(C)C)NC(=O)[C@H](C)NC(=O)[C@H](CCCCN)NC(=O)[C@H](CC(C)C)NC(=O)[C@H](CC(N)=O)NC(=O)[C@@H](NC(=O)[C@H](CCCCN)NC(=O)CNC(=O)[C@H](CC(C)C)NC(=O)[C@H](CC(C)C)NC(=O)[C@H](Cc1ccc(O)cc1)NC(=O)CNC(=O)[C@H](C)N)[C@@H](C)CC)C(=O)N[C@@H](CC(C)C)C(N)=O` [TP10-NH2, transportan 10, reference compound], for which the MIC50 in data set [7] (P. aeruginosa ATCC 27853, MHB) was above 100 µM; in [10] it was 100 µM (≈ 218 µg/mL); in [11], above 200 µM; in data set [12], above 200 µM; in data set [14], 1.6 µM (≈ 3.49 µg/mL); in [16], 1.6 µM (≈ 3.49 µg/mL). The MIC50 in data set [19] was found to be 100 µM (≈ 218 µg/mL); in data set [20], 3.125 µM (≈ 6.82 µg/mL); in data set [24] it was 100 µM (≈ 218 µg/mL). Moreover, the MIC90 in data set [7] (P. aeruginosa ATCC 27853, MHB) was above 100 µM; in data set [10] it was 100 µM (≈ 218 µg/mL); in data set [14], 1.6 µM (≈ 3.49 µg/mL); in data set [16] it was 1.6 µM (≈ 3.49 µg/mL); in [20], 3.125 µM (≈ 6.82 µg/mL); in data set [24], 100 µM (≈ 218 µg/mL). Moreover, the MIC in data set [7] (Pseudomonas aeruginosa, MHB) is above 100 µM; in [9] (Staphylococcus aureus ATCC 25,923, converted from μg/mL), ~ 7 μM; in data set [9] (Staphylococcus aureus ATCC 25,923) it was 16 µg/mL (≈ 7.33 µM); in data set [15] (E. coli ATCC 25,922, converted from μg/mL), ~ 7 μM; in data set [15] (E. coli ATCC 25,922), 16 µg/mL (≈ 7.33 µM). Also, the “Concentration of complete inhibition of topoisomerase II activity” value in data set [8] is recorded as 50 µM. Also, the “Influence of salts (MHB2 vs MHB) on antibacterial activity” value in [13] is “strongly affected”. Also, in data set [13], the “MIC in salt-enriched medium (MHB2) relative to MHB” value is “up to 40 fold”. Moreover, the IC50 in [17] was found to be 25.1 ± 0.86 µM; in data set [18], 32.1 ± 1.65 µM; in data set [21], 22.7 ± 5.65 µM. Besides, the “ROS HL-60” value in [22] is given as “++ (++ <10% positive cells in 24 h)”. Besides, in data set [23], the “ROS HEK 293” value was “++ (++ <10% positive cells in 24 h)”. For the same molecule, in [25], the “Stability inside bacterial cells” value is listed as “resistant inside the bacterial cells”. Besides, the “MHC50 (concentration causing 50% hemolysis)” value in data set [26] was around 200 µg/mL; in [26] (converted from μg/mL) it was ~ 92 μM. Moreover, in data set [27], the “MIC against C. albicans” value amounted to 100 µM (≈ 218 µg/mL).
